Results published in US11530132B2, “Composition comprising porous silica particles carrying a cell fate modulating factor” (LEMONEX INC., priority 2017, dated 2022).

How the values were obtained:
[1] = system: nerve cells or fibroblasts; assay: Transfection rate of factors carried in DDV; format: cell-based; conditions: factor carried in DDV
[2] = system: nerve cells or fibroblasts; assay: Forward differentiation rate with factors carried in DDV; format: cell-based; conditions: factor carried in DDV
Excerpt: (§1) This process was repeated 3 times.
as §1

mES cells = assay: Neural induction of mES cells, quantitative image analysis (Tuj1-positive cells, axon length); format: cell-based, mouse; conditions: after neural induction; FIG. 32
Experimental: Neural induction of mES cells was conducted by adding RA or RA/AMSN19 complex. In particular, 10^−6M RA or 25 μg of RA/AMSN19 (corresponding to 3×10^−6M including RA) was used for treatment of mES cells in a complete mES medium for 2 days. A non-induction group was cultured as a negative control group. After 2 days, the medium was replaced with a new nerve cell culture medium, N2B27. The medium was replaced on alternate days.
For quantitative analysis, 5 representative fluorescent images were obtained from different immunostain samples, respectively. The images were analyzed by an ImageJ program. For Tuj1-positive cell analysis, the number of florescent cells expressing Tuj1 more than a critical value was measured from each image, followed by calculating a ratio of the measured number to a total number of nuclei. For measurement of a length of axon, axons contained in 50 cells in each sample were analyzed by a line measurement device. In consideration of 100 representative axons, an average value was calculated.

Compound | Transfection rate [1] | Forward differentiation rate [2] | Cell conversion efficiency (rate of Tuj1 positive cells among entire cells survived) (mES cells)
Nc1ncn([C@@H]2O[C@H](CO)[C@@H](O)[C@H]2O)c(=O)n1 [5-azacytidine] | 50-95% | 5-30% | –
CC1=C(/C=C/C(C)=C/C=C/C(C)=C/C(=O)O)C(C)(C)CCC1 [RA, retinoic acid] | – | – | about 30%
